Measurements taken from ChEMBL document CHEMBL5247637, “Rational design, synthesis and biological evaluation of novel 2-(substituted amino)-[1,2,4]triazolo[1,5-a]pyrimidines as novel tubulin polymerization inhibitors” (Eur J Med Chem, 2022).

Columns and labels:
Tubulin (Homo sapiens) = Tubulin (Homo sapiens) (UniProt P68371+Q9H4B7+P0DPH7+P68366+Q13509+Q71U36+P04350+Q3ZCM7+P07437+P68363+Q9BQE3+Q6PEY2+Q13885+Q9BVA1+Q9BUF5); assay: Inhibition of tubulin polymerization (unknown origin) at 10 uM incubated for 0.5 hrs in presence of GTP by spectrophotometer analysis relative to control; format: protein-complex assay
Tubulin = assay: Inhibition of tubulin polymerization (unknown origin) incubated for 0.5 hrs in presence of GTP by spectrophotometer analysis; format: protein-complex assay, Homo sapiens
T47D = assay: Antiproliferative activity against human T47D cells assessed as inhibition of cell growth measured after 48 hrs by MTT assay; format: functional, cell-based
A549 = assay: Antiproliferative activity against human A549 cells assessed as inhibition of cell growth measured after 48 hrs by MTT assay; format: functional, cell-based; details: A549, 48 h

inhibition (Tubulin (Homo sapiens)) [%]	IC50 (Tubulin) [µM]	SMILES	IC50 (T47D) [nM]	IC50 (A549) [nM]
78		COc1ccc(Nc2nc3nccc(-c4cc(OC)c(OC)c(OC)c4)n3n2)cc1N		
56	9.9	COc1ccc(C2C(C(C)=O)=C(C)N=C3N=C(c4cc(OC)c(OC)c(OC)c4)NN32)cc1[N+](=O)[O-] (configuration not stated)		
43	4.9	COc1ccc(Nc2nc3nccc(-c4cc(OC)c(OC)c(OC)c4)n3n2)cc1O		
		COc1ccc(/C=C\c2cc(OC)c(OC)c(OC)c2)cc1O [COMBRETASTATIN A4]	21	27
